Reference: patent publication US20230382926A1, “COMPOUNDS AND USES THEREOF” (The University of The West Indies, priority 2022, published 2023)

Tests used:
[1] = system: Klebsiella pneumoniae ATCC BAA-2814; experiment: Gene expression analysis by quantitative reverse transcription PCR; type: cell-based
Experimental: Cell treatment and RNA extraction: Overnight cultures of Klebsiella pneumoniae ATCC BAA-2814 grown on Brain Heart Infusion (BHI) agar was harvested and washed in phosphate buffer saline (pH=7.4) twice. Fresh Brain Heart infusion broth was inoculated with K. pneumoniae cells to a final concentration of 10^6 CFU mL^−1. Cells were subjected to the following treatments: T0—Vehicle only (ddH2O); T1—Meropenem only (0.25 MIC; 8 μg mL^−1); T2—Meropenem 0.25 MIC+SP-azaBIM 136 (2 ug mL^−1). Treated cells were incubated at 35° C. at 200 rpm and total RNA was extracted at 1 h and 6 h post exposure using TRIzol reagent (Life Technologies) following the manufacturer's protocol before eluting in DEPC treated water. Three biological replicates were included for each treatment.
Quantitative reverse transcription PCR analysis: Reverse transcription was done using the GoScript Reverse Transcriptase Kit (Promega, USA) employing a mixture (1:1) of random and oligo dT primers with 2 μg RNA as starting material in a 20-μL reaction following the manufacturers protocols. cDNA samples were then quantified by real-time PCR using specific primers in an Applied Biosystems 7500 Fast Real-Time PCR system (Life Technologies Corp., USA) and the data analysed using the 2^(−ΔΔct) method. Thermal cycling was performed using a two-step PCR amplification standard procedure at 95° C. for 30 s and 35 cycles of 95° C. for 5 s and 60° C. for 30 s. The expression levels of all the genes were normalized using the K. pneumoniae RNA polymerase sigma factor (rpoD) gene as an internal standard.
To examine this hypothesis, we investigated the expression of genes in K. pneumoniae ATCC […] that were affected by SP-azaBIM 136 treatment. Expression of key transcription factors and their associated downstream resistance and pathogenicity genes was examined in Klebsiella pneumoniae cells treated with meropenem and a combination of meropenem and SP-azaBIM 136. Cells in the exponential phase were either treated with 0.25 MIC (8 μg mL^−1) of Meropenem only or a combination of 0.25 MIC meropenem and 10 μg mL^−1 of SP-azaBIM 136. Untreated cells served as the control for baseline gene expression. Cells were exposed to each agent for 1 h and 6 h, after which the total RNA was extracted, and cDNA synthesis performed. […] The addition of SP-azaBIM 136 was theorized to revert the expression of the relevant genes closer to baseline expression levels.

[2] = system: K. pneumoniae 7225; experiment: Lethal peritonitis infection model (survival); type: in vivo, Swiss albino mice; details: for Survival in lethal K. pneumoniae infection: each 10 mg kg^−1 s.c.
Experimental: (§1) For both lethal and non-lethal infection models involving Carbapenem resistant Klebsiella pneumoniae suitable strains, number of mice per treatment and bacterial infection dose were predetermined in preliminary experiments.
For the lethal peritonitis infections, mice were treated as in the non-lethal infection studies except the inoculation dose was 2×10^7 CFU mL^−1 K. pneumoniae 7225. The mice were then divided into the previously listed treatment regimens and treatment was provided every 24 h for two days after infection. Mice were monitored for mortality for 7 days and the moribund mice were euthanized humanely using cervical dislocation.
For survival experiments, Swiss albino mice were given lethal doses of K. pneumoniae 7225 (C) (2×10^7 CFU ml^−1) via i.p. injection. Mice were treated the same as in the non-lethal peritonitis experiments and mortality was monitored for 7 days. Data lines represent the percent of mice (n=10 mice per treatment group) that survived daily. […]

[3] = system: clinical isolate CR-K. pneumoniae 7225; experiment: Non-lethal mouse peritonitis infection model; type: in vivo, Swiss albino mice
Experimental: as §1
Each mouse (n=6 per group) received an intraperitoneal (i.p.) injection of 200 μl of bacterial suspension (1×10^4 CFU ml^−1).
Mice were then treated once daily for two subsequent days (i.e. 24 h and 48 h). Twenty-four-hours after the last dose, the mice were euthanized via cervical dislocation and their spleen and liver excised, homogenized in PBS and plated onto Hichrome™ Klebsiella selective media (HiMedia Laboratories, PA, USA). The plates were incubated at 35° C. for 24 h and bacterial counts were determined (CFU g^−1 organ).
Based on the significance of the SP-azaBIMs to restore the in vitro efficacy of antibiotics against high priority pathogenic bacteria, we examined if these compounds could provide proof of concept that they could be used to treat in vivo infections. To test this, we performed both non-lethal and lethal intraperitoneal infection models in Swiss Albino mice.
There was a significant reduction in the K. pneumoniae load in both the liver (FIG. 2a) and spleen (FIG. 2b) for the combination therapies compared to the respective antibiotic monotherapies. […] Colistin (Col) (10 mg kg^−1) was used as the positive control in this case. K. pneumoniae load in the liver (FIG. 2a) and spleen (FIG. 2b) was determined by selective plating on Hichrome™ Klebsiella selective media. Data bars represent the average (n=6 mice per treatment group)±standard error.

[4] = Meropenem 0.25 MIC + SP-azaBIM 136, 6 h
[5] = addition of SP-azaBIM 136 to meropenem, versus meropenem only
[6] = co-administered with Meropenem 10 mg kg^−1, SP-azaBIM 136 10 mg kg^−1 s.c. at 1, 24, 48 h, versus Meropenem only
[7] = combination with Ciprofloxacin 10 mg kg^−1, SP-azaBIM 136 10 mg kg^−1 s.c., compared to Ciprofloxacin only

## Oc1ccc(C(c2c[nH]c3cnccc23)c2c[nH]c3cnccc23)cc1 [SP-6azaBIM 136, 4-(bis(1H-pyrrolo[2,3-c]pyridin-3-yl)methyl)phenol]
[1]; Meropenem 0.25 MIC + SP-azaBIM 136 (2 ug mL^−1, 10 μg mL^−1 elsewhere in the source), 1 h
  ROB gene expression relative to baseline levels: 0.35 times that of baseline levels
[1]; Meropenem 0.25 MIC + SP-azaBIM 136, 1 h
  soxS gene expression compared to untreated cells: 0.28 fold
[1]; [4]
  ROB gene expression relative to baseline levels: 1.4 fold
  soxS gene expression compared to untreated cells: 0.76 fold
[1]; Meropenem + SP-azaBIM 136
  Expression of extended spectrum beta-lactamases and carbapenemase gene KPC: significantly suppressed
  TEM-1 gene expression: no significant variation in expression
  marA regulatory gene expression response: not as profound as the other two genes
[1]; SP-azaBIM 136 added to meropenem, 1 h and 6 h
  Virulence gene expression (fimH, entB, iutA, rpmA): expression decreased significantly
[1]; [5]
  Reduction in mexA gene expression: 17 fold
  Reduction in norB gene expression: 4.5 fold
[2]; SP-azaBIM 136 on its own
  Protection to lethal infections: nor provide any protection to lethal infections
[2]; co-treatment with Ciprofloxacin, 7 days
  Survival in lethal K. pneumoniae infection: 100%
[2]; co-treatment with Meropenem, 7 days
  Survival in lethal K. pneumoniae infection: 90%
[2]; monotherapy 10 mg kg^−1 s.c., 2×10^7 CFU ml^−1 i.p., 7 days
  Mortality in lethal K. pneumoniae infection: 100%
[3]; SP-azaBIM 136 on its own, 10 mg kg^−1
  K. pneumoniae load in the organs: not able to reduce K. pneumoniae load in the organs
[3]; [6]
  Reduction of bacterial cells in the liver: 41 fold
  Reduction of bacterial cells in the spleen: 14 fold
[3]; [7]
  Reduction of bacterial cells in the liver: ~53 fold
  Reduction of bacterial cells in the spleen: ~12 fold
